The text below walks through data of patent US12662491B2 (Redona Therapeutics, Inc., priority 2020, dated 2026).

As a reminder, the IC50 is the concentration that gives 50% inhibition.

This experiment deals with T1, Zcchc11 enzyme (Homo sapiens, UniProt Q5TAX3).
T1 construct: made in house; host or cells: HEK293 cells (Zcchc11); E. coli Rosetta II (LIN28A)
T1 sequence (Q5TAX3 212-1420): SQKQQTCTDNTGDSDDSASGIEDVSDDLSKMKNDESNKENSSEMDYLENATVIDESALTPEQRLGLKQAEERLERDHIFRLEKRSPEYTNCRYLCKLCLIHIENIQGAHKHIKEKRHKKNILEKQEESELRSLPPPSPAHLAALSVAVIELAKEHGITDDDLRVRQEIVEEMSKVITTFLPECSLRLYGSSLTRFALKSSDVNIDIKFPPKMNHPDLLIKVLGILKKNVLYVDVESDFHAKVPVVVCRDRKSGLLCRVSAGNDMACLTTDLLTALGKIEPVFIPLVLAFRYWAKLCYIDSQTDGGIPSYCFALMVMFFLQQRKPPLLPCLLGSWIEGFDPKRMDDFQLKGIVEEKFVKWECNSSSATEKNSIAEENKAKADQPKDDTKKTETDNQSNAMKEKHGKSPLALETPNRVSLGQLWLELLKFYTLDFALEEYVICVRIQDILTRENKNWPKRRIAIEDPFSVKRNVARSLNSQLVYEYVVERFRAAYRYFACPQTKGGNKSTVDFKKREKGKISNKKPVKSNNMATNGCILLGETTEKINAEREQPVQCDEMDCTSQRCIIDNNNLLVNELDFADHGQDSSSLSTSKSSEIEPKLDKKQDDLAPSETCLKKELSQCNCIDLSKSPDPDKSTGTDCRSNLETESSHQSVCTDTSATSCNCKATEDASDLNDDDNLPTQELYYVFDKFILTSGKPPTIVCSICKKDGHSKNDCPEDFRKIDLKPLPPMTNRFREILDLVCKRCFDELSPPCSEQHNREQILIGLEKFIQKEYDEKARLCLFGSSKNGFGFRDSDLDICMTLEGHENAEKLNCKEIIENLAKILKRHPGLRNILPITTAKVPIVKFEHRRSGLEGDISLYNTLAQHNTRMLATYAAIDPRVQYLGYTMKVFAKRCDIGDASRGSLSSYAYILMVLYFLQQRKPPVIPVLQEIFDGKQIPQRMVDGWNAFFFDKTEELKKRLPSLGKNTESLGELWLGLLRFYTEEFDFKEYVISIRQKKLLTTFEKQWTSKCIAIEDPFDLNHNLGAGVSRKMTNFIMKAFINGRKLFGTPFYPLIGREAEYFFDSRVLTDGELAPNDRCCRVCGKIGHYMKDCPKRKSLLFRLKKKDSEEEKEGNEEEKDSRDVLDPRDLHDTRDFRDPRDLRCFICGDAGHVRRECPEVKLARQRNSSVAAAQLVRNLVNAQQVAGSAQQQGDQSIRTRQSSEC
As to the kind of experiment: TUTase assay (Zcchc11 assay, Lin28a-dependent polyuridylation of pre-let-7). Conditions: Lin28a-dependent Zcchc11 (Z11) TUTase activity; read-out: Potency Lin28a-dep Z11 IC50. In kind it is biochemical. An outline of the steps:
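Polyuridylation measured as fluorescein loss when a rhodamine-labelled A20 probe anneals to U-tails added to fluorescein pre-let-7 (2 nM). Reaction: truncated Zcchc11 0.2 nM, E. coli-made LIN28A 10 nM, UTP 5 uM, HEPES pH 7.3, room temperature. Initial rates fitted to four-parameter IC50.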

For the compound `CN(C)C1CN(c2ccc(-n3cc(C(=O)O)c(=O)c4cc(F)c(N5C6CC6C[C@@H]5COc5nc6c(ccn6C)cc5Cl)cc43)cn2)C1` (stereo partly drawn) [Compound 334, 7-[(3R)-3-[({5-chloro-1-methylpyrrolo [2,3-b]pyridin-6-yl}oxy)methyl]-2-azabicyclo [3.1.0]hexan-2-yl]-1-{6-[3-(dimethyl-amino)azetidin-1-yl]pyridin-3-yl}-6-fluoro-4-oxoquinoline-3-carboxylic acid], the 50% inhibitory concentration (IC50) is at most 1000 nM.

Turning to `CN(C)c1ccc(Cl)c(OC[C@H]2C[C@@H]3C[C@@H]3N2c2cc3c(cc2F)c(=O)c(C(=O)O)cn3-c2ccc(N3CC(N(C)C)C3)nc2)n1` [Compound 335, 7-[(1S,3R,5S)-3-({[3-Chloro-6-(dimethyl-amino)pyridin-2-yl]oxy}methyl)-2-azabicyclo [3.1.0]hexan-2-yl]-1-{6-[3-(dimethyl-amino)azetidin-1-yl]pyridin-3-yl}-6-fluoro-4-oxoquinoline-3-carboxylic acid], the IC50 was at most 1000 nM. In the case of `CN(C)C1CN(c2ccc(-n3cc(C(=O)O)c(=O)c4cc(Cl)c(N5C6CC6C[C@@H]5COc5nc(N)ccc5Cl)cc43)cn2)C1` (stereo partly drawn) [Compound 336, 7-[(3R)-3-{[(6-Amino-3-chloropyridin-2-yl)oxy]methyl}-2-azabicyclo [3.1.0]hexan-2-yl]-6-chloro-1-{6-[3-(dimethyl-amino)azetidin-1-yl]pyridin-3-yl}-4-oxoquinoline-3-carboxylic acid], the 50% inhibitory concentration (IC50) is at most 1000 nM. As for `CN(C)C1CN(c2ccc(-n3cc(C(=O)O)c(=O)c4cc(F)c(N5[C@@H](COc6nc7c(ccn7C)cc6Cl)C[C@H]6C[C@H]65)cc43)cn2)C1` [Compound 337, 7-[(1R,3R,5R)-3-[{{5-Chloro-1-methyl-pyrrolo[2,3-b]pyridin-6-yl}oxy)methyl]-2-azabicyclo [3.1.0]hexan-2-yl]-1-{6-[3-(dimethyl-amino)azetidin-1-yl]pyridin-3-yl}-6-fluoro-4-oxoquinoline-3-carboxylic acid], the IC50 was at most 1000 nM. Next, `CN(C)c1ccc(Cl)c(OC[C@H]2C[C@H]3C[C@H]3N2c2cc3c(cc2F)c(=O)c(C(=O)O)cn3-c2ccc(N3CC(N(C)C)C3)nc2)n1` [Compound 338, 7-[(1R,3R,5R)-3-({[3-chloro-6-(dimethyl-amino)pyridin-2-yl]oxy}methyl)-2-azabicyclo [3.1.0]hexan-2-yl]-1-{6-[3-(dimethyl-amino)azetidin-1-yl]pyridin-3-yl}-6-fluoro-4-oxoquinoline-3-carboxylic acid]: at most 1000 nM; `CN(C)C1CN(c2ccc(-n3cc(C(=O)O)c(=O)c4cc(Cl)c(N5[C@@H](COc6nc(N)ccc6Cl)C[C@H]6C[C@H]65)cc43)cn2)C1` [Compound 339, 7-[(3R)-3-{[(6 Amino-3-chloropyridin-2-yl)oxy]methyl}-2-azabicyclo [3.1.0]hexan-2-yl]-6-chloro-1-{6-[3-(dimethyl-amino)azetidin-1-yl]pyridin-3-yl}-4-oxoquinoline-3-carboxylic acid]: at most 1000 nM. As to `COc1ccc(Cl)c(OC[C@H]2C[C@H]3C[C@H]3N2c2cc3c(cc2F)c(=O)c(C(=O)O)cn3-c2ccc(N(C)C)nc2)n1` [Compound 340, 7-[(1R,3R,5R)-3-{[(3-Chloro-6-methoxy-pyridin-2-yl)oxy]methyl}-2-azabicyclo [3.1.0]hexan-2-yl]-1-[6-(dimethyl-amino)pyridin-3-yl]-6-fluoro-4-oxoquinoline-3-carboxylic acid], the concentration for half-maximal inhibition (IC50) was at most 1000 nM. On to `COc1ccc(Cl)c(OC[C@H]2C[C@H]3C[C@H]3N2c2cc3c(cc2Cl)c(=O)c(C(=O)O)cn3-c2ccc(N(C)C)nc2)n1` [Compound 341, 6-Chloro-7-[(1R,3R,5R)-3-{[(3-chloro-6-methoxy-pyridin-2 yl)oxy]methyl}-2-azabicyclo [3.1.0]hexan-2-yl]-1-[6-(dimethyl-amino)pyridin-3-yl]-4-oxoquinoline-3-carboxylic acid], for which the concentration for half-maximal inhibition (IC50) is at most 1000 nM. Consider `COc1ccc(F)c(OC[C@H]2C[C@H]3C[C@H]3N2c2cc3c(cc2Cl)c(=O)c(C(=O)O)cn3-c2ccnc(N)c2)n1` [Compound 342, 1-(2-Aminopyridin-4-yl)-6-chloro-7-[(1R,3R,5R)-3-{[(3-fluoro-6-methoxy-pyridin-2-yl)oxy]methyl}-2-azabicyclo [3.1.0]hexan-2-yl]-4-oxoquinoline-3-carboxylic acid], for which the half-inhibitory concentration (IC50) is at most 1000 nM. As for `Cc1ccc(F)c(OC[C@H]2C[C@H]3C[C@H]3N2c2cc3c(cc2Cl)c(=O)c(C(=O)O)cn3-c2ccc(N(C)C)nc2)n1` [Compound 343, 6-Chloro-1-[6-(dimethyl-amino)pyridin-3-yl]-7-[(1R,3R,5R)-3-{[(3-fluoro-6-methylpyridin-2-yl)oxy]methyl}-2-azabicyclo [3.1.0]hexan-2-yl]-4-oxoquinoline-3-carboxylic acid], the figure is at most 1000 nM; as for `Cc1ccc(F)c(OC[C@H]2C[C@H]3C[C@H]3N2c2cc3c(cc2F)c(=O)c(C(=O)O)cn3-c2ccc(N(C)C)nc2)n1` [Compound 344, 1-[6-(Dimethyl-amino)pyridin-3-yl]-6-fluoro-7-[(1R,3R,5R)-3-{[(3-fluoro-6-methylpyridin-2-yl)oxy]methyl}-2-azabicyclo [3.1.0]hexan-2-yl]-4-oxoquinoline-3-carboxylic acid], at most 1000 nM. Turning to `COc1ccc(Cl)c(OC[C@H]2C[C@@H](c3cccnc3)CN2c2cc3c(cc2Cl)c(=O)c(C(=O)O)cn3-c2ccc(N3CC(N(C)C)C3)nc2)n1` [Compound 345, 6-chloro-7-((2R,4S)-2-(((3-chloro-6-methoxy-pyridin-2-yl)oxy)methyl)-4-(pyridin-3-yl)pyrrolidin-1-yl)-1-(6-(3-(dimethyl-amino)azetidin-1-yl)pyridin-3-yl)-4-oxo-1,4-dihydro-quinoline-3-carboxylic acid], the 50% inhibitory concentration (IC50) is at most 1000 nM. Next, `CN(C)C1CN(c2ccc(-n3cc(C(=O)O)c(=O)c4cc(Cl)c(N5CC(c6ncccn6)C[C@@H]5COc5ncccc5Cl)cc43)cn2)C1` (stereo partly drawn) [Compound 346, 6-chloro-7-((2R)-2-(((3-chloropyridin-2-yl)oxy)methyl)-4-(pyrimidin-2-yl)pyrrolidin-1-yl)-1-(6-(3-(dimethyl-amino)azetidin-1-yl)pyridin-3-yl)-4-oxo-1,4-dihydro-quinoline-3-carboxylic acid]: at most 1000 nM. For the compound `CN(C)C1CN(c2ccc(-n3cc(C(=O)O)c(=O)c4cc(Cl)c(N5CC6(CC6)C[C@@H]5COc5ncccc5Cl)cc43)cn2)C1` [Compound 347, (R)-6-chloro-7-(6-(((3-chloropyridin-2-yl)oxy)methyl)-5-azaspiro[2.4]heptan-5-yl)-1-(6-(3-(dimethyl-amino)azetidin-1-yl)pyridin-3-yl)-4-oxo-1,4-dihydro-quinoline-3-carboxylic acid], the IC50 was at most 1000 nM. On to `COc1ccc(Cl)c(OC[C@H]2C[C@H](c3cccnc3)CN2c2cc3c(cc2Cl)c(=O)c(C(=O)O)cn3-c2ccc(N3CC(N(C)C)C3)nc2)n1` [Compound 348, 6-chloro-7-((2R,4R)-2-(((3-chloro-6-methoxy-pyridin-2-yl)oxy)methyl)-4-(pyridin-3-yl)pyrrolidin-1-yl)-1-(6-(3-(dimethyl-amino)azetidin-1-yl)pyridin-3-yl)-4-oxo-1,4-dihydro-quinoline-3-carboxylic acid], for which the IC50 is at most 1000 nM. As for `CN(C)C1CN(c2ccc(-n3cc(C(=O)O)c(=O)c4cc(Cl)c(N5CC(C6CC6)C[C@@H]5COc5ncccc5Cl)cc43)cn2)C1` (stereo partly drawn) [Compound 349, 6-chloro-7-((2R)-2-(((3-chloropyridin-2-yl)oxy)methyl)-4-cyclopropyl-pyrrolidin-1-yl)-1-(6-(3-(dimethyl-amino)azetidin-1-yl)pyridin-3-yl)-4-oxo-1,4-dihydro-quinoline-3-carboxylic acid], the IC50 was at most 1000 nM. Consider `CN(C)c1ccc(Cl)c(OC[C@H]2CCCN2c2cc3c(cc2Cl)c(=O)c(C(=O)O)cn3-c2ccc(N3CC(N(C)C)C3)nc2)n1` [Compound 350, (R)-6-chloro-7-(2-(((3-chloro-6-(dimethyl-amino)pyridin-2-yl)oxy)methyl)pyrrolidin-1-yl)-1-(6-(3-(dimethyl-amino)azetidin-1-yl)pyridin-3-yl)-4-oxo-1,4-dihydro-quinoline-3-carboxylic acid], for which the concentration for half-maximal inhibition (IC50) is at most 1000 nM.
